In US20130289070A1, “Use of Levocabastine for Modulating Generation of Pro-Inflammatory Cytokines” (Bausch & Lomb Incorporated, priority 2007, published 2013):

Tested on: EoL-1 (human eosinophilic leukaemia cell line) cells
Assay: TNF-α-induced cytokine release, non-differentiated EoL-1 cells (NO PMA) (Luminex)
Type: cell-based
Design: key to Fractalkine (NO PMA), p of decrement / IL-1α (NO PMA), p of decrement / IL-1β (NO PMA), p of decrement / IL-1ra (NO PMA), p of decrement / IL-5 (NO PMA), p of decrement / IL-7 (NO PMA), p of decrement / IL-8 (NO PMA), p of decrement / IP-10 (NO PMA), p of decrement / MCP-1 (NO PMA), p of decrement / MIP-1β (NO PMA), p of decrement / VEGF (NO PMA), p of decrement: ns = non significant
Description: EoL-1 (human eosinophilic leukaemia cell line) cells (Saito et al., 1985; Mayumi, 1992) were maintained in RPMI-1640 medium with L-glutamine supplemented with 10% (v/v) FBS at 37° C. in a humidified atmosphere with 5% CO2. Where indicated, 24 h before the experiment 25 ng/mL PMA ((phorbol 12-myristate 13-acetate, purchased from Sigma Aldrich) was added to the medium to induce eosinophil granulation and differentiation (Ohtsu et al., 1993; Zimmermann et al., 2000).
Half-million cells were aliquoted per point in a 24 well plate; each experiment was performed in triplicate and carried out in parallel with eosinophils differentiated and non differentiated with PMA (25 ng/mL, 24 h). Cells were suspended in low serum medium (RPMI-1640, 0.1% (v/v) FBS). TNF-α was used to induce cytokine secretion as previously described by Steube et al. (2000), and the net release was obtained by comparison to the basal (non-TNF-α treated). In the first experiment we evaluated the concentration and time relation between TNF-α stimulation and cytokine release. Therefore, 5, 10, and 25 ng/mL of TNF-α was administered to the cells at 0, ½, 1, 2, 3, 6, 12 and 24 h (data not shown). An aliquot of 150 μL of supernate was collected for cytokines' analysis. […] Differentiated and non-differentiated EoL-1 cells were exposed from 0.1 to 2.3 mM levocabastine ([…]Levocabastine 0.05% solution eye drops containing cyclodextrins, without benzalkonium chloride), and aliquots of the supernates were collected after 12 and 24 h. The content of cytokines at time zero was estimated by treating the cells with 400 nM calcimycin (A-23187), which is a cytolytic agent that frees all the mediators from the cytoplasmic compartment. In addition, for each experiment we tested the effect of the vehicle, which was added to the wells in a concentration equal to the maximum amount used for drug dilution.
Samples (supernates 12 and 24 h) in triplicate were analyzed using Luminex 200™ (Luminex, Austin, Tex.) and Beadview software v1.0 (Upstate Cell Signaling Solutions, Temecula, Calif.).
All data are presented as mean±SEM for the indicated number of experiments. Statistical significance was determined by Newman-Keuls test after ANOVA using GraphPad Prism (version 3.0; GraphPad Software Inc., San Diego, Calif., USA). P-values<0.05 were considered to be significant.

[1] = 24 h, VCAM-1 + Levocabastine 2 mM vs VCAM-1
[2] = non-differentiated EoL-1 cells, in the presence of VCAM-1 or fibronectin

SMILES: C[C@@H]1CN([C@H]2CC[C@](C#N)(c3ccc(F)cc3)CC2)CC[C@]1(C(=O)O)c1ccccc1 [Levocabastine, levocabastine]
- IP-10 (NO PMA), p of decrement (24 h, TNF-α vs Lev 0.1 mM): p < 0.05
- MCP-1 (NO PMA), p of decrement (24 h, TNF-α vs Lev 0.1 mM): ns
- MIP-1β (NO PMA), p of decrement (24 h, TNF-α vs Lev 0.1 mM): ns
- VEGF (NO PMA), p of decrement (24 h, TNF-α vs Lev 0.1 mM): ns
- Fractalkine (NO PMA), p of decrement (24 h, TNF-α vs Lev 0.5 mM): ns
- IL-1ra (NO PMA), p of decrement (24 h, TNF-α vs Lev 0.5 mM): ns
- IL-1α (NO PMA), p of decrement (24 h, TNF-α vs Lev 0.5 mM): ns
- IL-1β (NO PMA), p of decrement (24 h, TNF-α vs Lev 0.5 mM): ns
- IL-5 (NO PMA), p of decrement (24 h, TNF-α vs Lev 0.5 mM): ns
- IL-7 (NO PMA), p of decrement (24 h, TNF-α vs Lev 0.5 mM): ns
- IL-8 (NO PMA), p of decrement (24 h, TNF-α vs Lev 0.5 mM): ns
- IP-10 (NO PMA), p of decrement (24 h, TNF-α vs Lev 0.5 mM): p < 0.05
- MCP-1 (NO PMA), p of decrement (24 h, TNF-α vs Lev 0.5 mM): ns
- MIP-1β (NO PMA), p of decrement (24 h, TNF-α vs Lev 0.5 mM): ns
- VEGF (NO PMA), p of decrement (24 h, TNF-α vs Lev 0.5 mM): ns
- Fractalkine (NO PMA), p of decrement (24 h, TNF-α vs Lev 1.0 mM): ns
- IL-1ra (NO PMA), p of decrement (24 h, TNF-α vs Lev 1.0 mM): ns
- IL-1α (NO PMA), p of decrement (24 h, TNF-α vs Lev 1.0 mM): ns
- IL-1β (NO PMA), p of decrement (24 h, TNF-α vs Lev 1.0 mM): ns
- IL-5 (NO PMA), p of decrement (24 h, TNF-α vs Lev 1.0 mM): ns
- IL-7 (NO PMA), p of decrement (24 h, TNF-α vs Lev 1.0 mM): ns
- IL-8 (NO PMA), p of decrement (24 h, TNF-α vs Lev 1.0 mM): ns
- IP-10 (NO PMA), p of decrement (24 h, TNF-α vs Lev 1.0 mM): ns
- MCP-1 (NO PMA), p of decrement (24 h, TNF-α vs Lev 1.0 mM): ns
- MIP-1β (NO PMA), p of decrement (24 h, TNF-α vs Lev 1.0 mM): ns
- VEGF (NO PMA), p of decrement (24 h, TNF-α vs Lev 1.0 mM): ns
- Fractalkine (NO PMA), p of decrement (24 h, TNF-α vs Lev 2.3 mM): ns
- IL-1ra (NO PMA), p of decrement (24 h, TNF-α vs Lev 2.3 mM): ns
- IL-1α (NO PMA), p of decrement (24 h, TNF-α vs Lev 2.3 mM): ns
- IL-1β (NO PMA), p of decrement (24 h, TNF-α vs Lev 2.3 mM): ns
- IL-5 (NO PMA), p of decrement (24 h, TNF-α vs Lev 2.3 mM): ns
- IL-7 (NO PMA), p of decrement (24 h, TNF-α vs Lev 2.3 mM): ns
- IL-8 (NO PMA), p of decrement (24 h, TNF-α vs Lev 2.3 mM): ns
- IP-10 (NO PMA), p of decrement (24 h, TNF-α vs Lev 2.3 mM): ns
- MCP-1 (NO PMA), p of decrement (24 h, TNF-α vs Lev 2.3 mM): ns
- MIP-1β (NO PMA), p of decrement (24 h, TNF-α vs Lev 2.3 mM): ns
- VEGF (NO PMA), p of decrement (24 h, TNF-α vs Lev 2.3 mM): p < 0.01
- MIP-1α (NO PMA), p of increase (24 h, TNF-α vs Lev 0.1-2.3 mM): concentration dependent way p < 0.001
- RANTES (NO PMA), p of increase (24 h, TNF-α vs Lev 0.1-2.3 mM): concentration dependent way p < 0.001
- Fractalkine (NO PMA), p of decrement [1]: ns
- G-CSF (NO PMA), p of decrement [1]: ns
- GM-CSF (NO PMA), p of decrement [1]: ns
- IL-1ra (NO PMA), p of decrement [1]: P < 0.01
- IL-1α (NO PMA), p of decrement [1]: ns
- IL-1β (NO PMA), p of decrement [1]: ns
- IL-5 (NO PMA), p of decrement [1]: ns
- IL-6 (NO PMA), p of decrement [1]: P < 0.001
- IL-7 (NO PMA), p of decrement [1]: ns
- IL-8 (NO PMA), p of decrement [1]: P < 0.001
- IL-10 (NO PMA), p of decrement [1]: ns
- IL-12p40 (NO PMA), p of decrement [1]: ns
- IP-10 (NO PMA), p of decrement [1]: ns
- MCP-1 (NO PMA), p of decrement [1]: ns
- MIP-1α (NO PMA), p of decrement [1]: Increase
- MIP-1β (NO PMA), p of decrement [1]: ns
- RANTES (NO PMA), p of decrement [1]: Increase
- TGF-α (NO PMA), p of decrement [1]: ns
- VEGF (NO PMA), p of decrement [1]: P < 0.001
- release of VEGF (FIG. 4 Panel B) (Naïve EoL-1 cells challenged with TNF-α, levocabastine with cyclodextrin pre-treatment): reduced release
- IL-6 release (FIG. 13) [2]: inhibited
- release, cytokine not named (FIG. 12) [2]: inhibited
